What is called IC50 is the concentration needed to halve the response being measured.

For one experiment, the target named is T1, NR1/NR2B (Homo sapiens, UniProt Q05586+Q13224).
T1 construct: expressed in transfected cells; host or cells: Xenopus laevis oocytes
Kind of experiment: Two electrode voltage clamp, Xenopus laevis oocytes expressing NR1/NR2B. In kind it is cell-based. Conditions: for activity at 100 µM: read-out: 2B percent effect at the maximum tested concentration; for IC50: fitted to composite concentration-effect data, Max 0 = inhibition, read-out: 2B IC50. Here is the method:
(§1) In the table above, potency is expressed as fitted EC50 value to average composite concentration-effect data constructed from current responses recorded under two electrode voltage clamp from Xenopus laevis oocytes expressing either NR1/NR2A, B, C, or D, GluR1, or GluR6. No effect means less than 20% change in response amplitude at 30 μM of drug.
In general terms: Two-electrode voltage clamp holds a large cell at a set potential and records current.

The target in the next experiment is NR1/NR2D (Homo sapiens, UniProt O15399+Q05586). The experiment can be described thus: Two electrode voltage clamp, Xenopus laevis oocytes expressing NR1/NR2D. The following applies: for activity at 100 µM: read-out: 2D percent effect at the maximum tested concentration, at 100 μM; for Emax: read-out: 2D Max.
For a further experiment, the target named is T2, NR1/NR2C (Homo sapiens, UniProt Q05586+Q14957).
T2 construct: expressed in transfected cells; host or cells: Xenopus laevis oocytes
Kind of experiment: Two electrode voltage clamp, Xenopus laevis oocytes expressing NR1/NR2C. In kind it is cell-based. The following applies: for activity at 100 µM: read-out: 2C percent effect at the maximum tested concentration; for IC50: fitted to composite concentration-effect data, read-out: 2C IC50; for Emax: maximal effect of fit, read-out: 2C Max.
Source text: Values are mean+SEM (n=14-20). […] C is the closed level; broken line is the open level.
The Hill slope at both receptors for all analogues was greater than 1, consistent with a cooperative effect of binding at two sites.
as §1

In the next experiment the target is T3, NR1/NR2A (Homo sapiens, UniProt Q12879).
T3 construct: expressed in transfected cells; host or cells: Xenopus laevis oocytes
Kind of experiment: Two electrode voltage clamp, Xenopus laevis oocytes expressing NR1/NR2A. In kind it is cell-based. Conditions: at 100 μM; read-out: 2A percent effect at the maximum tested concentration. The procedure:
as §1

Structures are written as SMILES.

T1 sequence (Q13224 27-1484, species assumed, other chains not shown): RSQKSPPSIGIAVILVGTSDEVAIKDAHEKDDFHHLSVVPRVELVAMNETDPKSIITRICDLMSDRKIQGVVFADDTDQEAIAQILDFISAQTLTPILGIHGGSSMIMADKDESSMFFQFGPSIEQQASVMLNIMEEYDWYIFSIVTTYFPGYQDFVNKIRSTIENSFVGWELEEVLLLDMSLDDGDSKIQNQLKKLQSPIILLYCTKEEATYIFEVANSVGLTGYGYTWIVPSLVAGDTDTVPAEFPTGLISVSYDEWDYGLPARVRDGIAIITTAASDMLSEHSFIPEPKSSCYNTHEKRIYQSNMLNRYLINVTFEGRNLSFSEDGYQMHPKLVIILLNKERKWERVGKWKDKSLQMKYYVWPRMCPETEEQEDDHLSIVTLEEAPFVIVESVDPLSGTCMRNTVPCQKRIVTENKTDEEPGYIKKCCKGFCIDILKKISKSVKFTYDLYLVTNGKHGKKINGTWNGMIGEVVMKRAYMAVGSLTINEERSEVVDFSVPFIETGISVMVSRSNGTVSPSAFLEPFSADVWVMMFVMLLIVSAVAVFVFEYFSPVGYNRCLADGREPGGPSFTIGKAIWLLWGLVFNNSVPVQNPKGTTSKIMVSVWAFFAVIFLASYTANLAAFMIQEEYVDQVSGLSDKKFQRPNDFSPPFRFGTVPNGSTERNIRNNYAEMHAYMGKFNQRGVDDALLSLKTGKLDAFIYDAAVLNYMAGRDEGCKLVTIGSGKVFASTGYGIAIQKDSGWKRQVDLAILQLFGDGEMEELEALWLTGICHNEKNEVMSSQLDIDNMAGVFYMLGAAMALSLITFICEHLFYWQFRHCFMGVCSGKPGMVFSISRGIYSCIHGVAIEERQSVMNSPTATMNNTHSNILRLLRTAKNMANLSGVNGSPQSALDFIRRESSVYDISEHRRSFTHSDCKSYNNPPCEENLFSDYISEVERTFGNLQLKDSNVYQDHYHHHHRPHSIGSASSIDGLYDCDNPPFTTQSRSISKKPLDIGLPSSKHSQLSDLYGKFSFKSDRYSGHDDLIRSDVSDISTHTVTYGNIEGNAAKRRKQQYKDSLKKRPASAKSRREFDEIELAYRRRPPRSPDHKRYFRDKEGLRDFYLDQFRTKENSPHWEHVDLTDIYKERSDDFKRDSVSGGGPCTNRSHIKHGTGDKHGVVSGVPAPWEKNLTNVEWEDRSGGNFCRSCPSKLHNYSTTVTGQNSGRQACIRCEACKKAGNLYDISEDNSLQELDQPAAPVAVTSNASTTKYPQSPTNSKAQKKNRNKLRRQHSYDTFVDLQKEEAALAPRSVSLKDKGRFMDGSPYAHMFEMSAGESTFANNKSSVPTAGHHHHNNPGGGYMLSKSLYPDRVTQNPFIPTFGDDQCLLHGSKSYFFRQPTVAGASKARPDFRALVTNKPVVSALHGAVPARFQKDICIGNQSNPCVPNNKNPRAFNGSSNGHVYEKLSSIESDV
T2 sequence (Q14957 20-1233, species assumed, other chains not shown): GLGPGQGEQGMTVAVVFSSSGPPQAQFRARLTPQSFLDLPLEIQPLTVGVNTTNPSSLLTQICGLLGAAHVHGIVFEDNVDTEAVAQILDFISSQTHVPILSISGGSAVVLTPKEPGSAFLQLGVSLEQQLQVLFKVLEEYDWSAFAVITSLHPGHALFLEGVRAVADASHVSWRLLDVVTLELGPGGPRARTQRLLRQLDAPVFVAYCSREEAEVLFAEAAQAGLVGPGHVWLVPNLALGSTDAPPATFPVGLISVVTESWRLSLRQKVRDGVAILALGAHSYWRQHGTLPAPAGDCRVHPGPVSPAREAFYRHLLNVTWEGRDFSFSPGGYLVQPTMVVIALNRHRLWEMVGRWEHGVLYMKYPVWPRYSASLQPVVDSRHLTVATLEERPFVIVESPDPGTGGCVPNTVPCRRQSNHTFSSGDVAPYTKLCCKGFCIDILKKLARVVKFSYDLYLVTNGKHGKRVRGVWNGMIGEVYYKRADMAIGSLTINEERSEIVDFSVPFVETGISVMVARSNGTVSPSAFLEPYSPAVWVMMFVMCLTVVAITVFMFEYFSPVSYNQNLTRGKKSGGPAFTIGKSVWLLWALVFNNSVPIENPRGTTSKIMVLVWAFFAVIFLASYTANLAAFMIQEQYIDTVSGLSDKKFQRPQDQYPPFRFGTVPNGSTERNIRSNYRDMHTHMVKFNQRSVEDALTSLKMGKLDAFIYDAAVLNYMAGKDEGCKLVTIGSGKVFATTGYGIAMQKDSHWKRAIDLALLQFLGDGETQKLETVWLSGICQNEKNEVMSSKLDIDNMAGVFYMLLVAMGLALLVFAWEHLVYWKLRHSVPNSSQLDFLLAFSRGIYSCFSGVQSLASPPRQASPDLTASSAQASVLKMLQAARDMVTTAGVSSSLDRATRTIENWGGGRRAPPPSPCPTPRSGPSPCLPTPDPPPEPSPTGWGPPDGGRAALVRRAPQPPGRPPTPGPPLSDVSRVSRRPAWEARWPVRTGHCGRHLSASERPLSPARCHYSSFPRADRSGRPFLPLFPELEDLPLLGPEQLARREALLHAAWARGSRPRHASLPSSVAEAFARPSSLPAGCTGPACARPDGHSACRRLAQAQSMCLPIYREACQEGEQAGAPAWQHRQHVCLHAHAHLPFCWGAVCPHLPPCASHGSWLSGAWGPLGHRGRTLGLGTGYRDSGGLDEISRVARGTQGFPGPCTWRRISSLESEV
NR1/NR2D, sequence (O15399 28-1336, species assumed, other chains not shown): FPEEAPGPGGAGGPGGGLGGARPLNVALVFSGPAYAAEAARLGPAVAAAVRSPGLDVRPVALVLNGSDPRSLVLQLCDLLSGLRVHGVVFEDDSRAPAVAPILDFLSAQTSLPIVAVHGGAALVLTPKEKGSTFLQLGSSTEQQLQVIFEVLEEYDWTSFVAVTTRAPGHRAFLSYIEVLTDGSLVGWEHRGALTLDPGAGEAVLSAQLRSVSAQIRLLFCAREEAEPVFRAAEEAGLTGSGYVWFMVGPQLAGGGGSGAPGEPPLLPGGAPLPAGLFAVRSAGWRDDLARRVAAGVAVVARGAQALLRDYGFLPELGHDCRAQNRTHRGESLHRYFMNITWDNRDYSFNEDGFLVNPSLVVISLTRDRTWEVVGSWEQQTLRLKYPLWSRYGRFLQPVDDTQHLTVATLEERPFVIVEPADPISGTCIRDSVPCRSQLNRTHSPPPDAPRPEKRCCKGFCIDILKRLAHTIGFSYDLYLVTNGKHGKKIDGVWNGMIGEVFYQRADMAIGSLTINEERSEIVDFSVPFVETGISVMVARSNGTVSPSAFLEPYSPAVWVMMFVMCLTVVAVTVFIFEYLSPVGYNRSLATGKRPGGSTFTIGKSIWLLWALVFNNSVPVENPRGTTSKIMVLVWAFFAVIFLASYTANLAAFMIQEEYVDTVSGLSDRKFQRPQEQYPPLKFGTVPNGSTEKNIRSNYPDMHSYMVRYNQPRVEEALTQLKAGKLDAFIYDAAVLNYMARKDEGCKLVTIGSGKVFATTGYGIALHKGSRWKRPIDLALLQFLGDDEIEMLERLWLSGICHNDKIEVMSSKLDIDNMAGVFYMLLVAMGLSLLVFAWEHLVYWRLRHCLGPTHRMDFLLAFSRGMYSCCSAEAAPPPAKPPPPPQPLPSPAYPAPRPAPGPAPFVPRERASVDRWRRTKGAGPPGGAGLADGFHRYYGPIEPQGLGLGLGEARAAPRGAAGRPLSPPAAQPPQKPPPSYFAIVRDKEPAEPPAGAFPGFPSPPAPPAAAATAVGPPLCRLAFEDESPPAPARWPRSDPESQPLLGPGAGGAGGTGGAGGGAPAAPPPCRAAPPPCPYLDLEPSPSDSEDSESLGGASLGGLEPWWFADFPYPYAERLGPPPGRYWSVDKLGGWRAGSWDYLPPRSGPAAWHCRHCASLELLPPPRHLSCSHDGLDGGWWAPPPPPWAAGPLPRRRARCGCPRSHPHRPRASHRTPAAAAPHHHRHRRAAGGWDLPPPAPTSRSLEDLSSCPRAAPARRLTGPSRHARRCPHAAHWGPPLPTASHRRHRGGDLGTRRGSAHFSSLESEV

With `Cc1ccnc(NC(=O)c2ccc(C(C)(C)C)cc2)c1` [compound 1398], the activity at 100 µM on NR1/NR2B came to 102%; on NR1/NR2D it was 76%; on NR1/NR2C it was 87%; on NR1/NR2A, 89%.
For `CC(C)(C)c1ccc(C(=O)Nc2sc3c(c2C(=O)O)CCC3)cc1` [compound 1399], the figures for the activity at 100 µM at NR1/NR2B and on NR1/NR2A were 108% and 100%, respectively. The IC50 stood at 26 µM at NR1/NR2D and 77 µM on NR1/NR2C. Besides, the Emax turned out to be 261% at NR1/NR2D and 301% on NR1/NR2C.
In the case of `CCOC(=O)c1cc(C)sc1NC(=O)c1ccc(C(C)(C)C)cc1` [compound 1400], the activity at 100 µM was determined as 89% at NR1/NR2B, 86% at NR1/NR2D, 96% on NR1/NR2C and 80% on NR1/NR2A.
The corresponding values for `Cc1cc(NC(=O)c2ccc(C(C)(C)C)cc2)no1` [compound 1401] are 87%, 86%, 97% and 105%.
For the compound `CSC1=NCCN1C(=O)c1ccc2ccccc2c1` [compound 1402], the activity at 100 µM is 80% on NR1/NR2B, 93% on NR1/NR2D, 103% on NR1/NR2C and 104% at NR1/NR2A.
For the compound `Cc1ccc(CSc2nccn2C(=O)c2ccc(C(C)(C)C)cc2)cc1` [compound 1403], the activity at 100 µM at NR1/NR2B stood at 94%; on NR1/NR2D, 86%; at NR1/NR2C, 104%; at NR1/NR2A it was 88%.
As for `O=C(O)C1=C(NC(=O)c2ccc(Br)cc2)SC2CCCC12` (centres unmarked) [compound 1404], the activity at 100 µM at NR1/NR2B was found to be 68%; on NR1/NR2D, 77%; at NR1/NR2C, 99%; on NR1/NR2A, 86%.
For the compound `CC(C)(C)c1ccc(C(=O)Nc2scc(-c3ccccc3)c2C(=O)O)cc1` [compound 1406], the IC50 was determined as 37 µM at NR1/NR2B, 44 µM against NR1/NR2D and 45 µM at NR1/NR2C. Besides, the Emax at NR1/NR2D was found to be 351%; on NR1/NR2C, 341%. Besides, the activity at 100 µM on NR1/NR2A was determined as 75%.
For the compound `CC(C)(C)c1ccc(C(=O)Nc2sc3c(c2C(=O)O)CCCC3)cc1` [compound 1417], the figures for the activity at 100 µM at NR1/NR2B and on NR1/NR2A were 102% and 87%, respectively. The IC50 on NR1/NR2D came out at 16 µM; on NR1/NR2C, 20 µM. The Emax on NR1/NR2D is 205%; on NR1/NR2C it was 202%.
For `Cc1sc(NC(=O)c2ccc(C(C)(C)C)cc2)c(C(=O)O)c1C` [compound 1418], the activity at 100 µM at NR1/NR2B was 115%; at NR1/NR2A, 99%. Also, the results for the IC50 on NR1/NR2D and on NR1/NR2C were 35 µM and 33 µM, respectively. Also, the Emax at NR1/NR2D is 195%; on NR1/NR2C, 187%.
As for `O=C(O)C1=C(NC(=O)c2ccc(I)cc2)SC2CCCC12` (centres unmarked) [compound 1419], the activity at 100 µM on NR1/NR2B is 91%; at NR1/NR2D, 90%; at NR1/NR2C it was 97%; on NR1/NR2A, 93%.
On to `COc1ccc(C(=O)Nc2sc(C)cc2C(=O)O)cc1` [compound 1420], for which the activity at 100 µM on NR1/NR2B amounted to 97%; on NR1/NR2D, 75%; on NR1/NR2C it was 94%; on NR1/NR2A, 118%.
On to `CCc1cc(C(=O)O)c(NC(=O)c2ccc(C(C)(C)C)cc2)s1` [compound 1421], for which the activity at 100 µM was determined as 100% at NR1/NR2B and 106% on NR1/NR2A. In addition, the IC50 was 35 µM at NR1/NR2D and 41 µM at NR1/NR2C. Also, the Emax at NR1/NR2D worked out at 152%; on NR1/NR2C, 159%.
For `CCOc1ccc(-c2csc(NC(=O)c3ccc(C(C)(C)C)cc3)c2C(=O)O)cc1` [compound 1423], the values for the IC50 at NR1/NR2B, on NR1/NR2D and on NR1/NR2C were 18 µM, 25 µM and 26 µM, respectively. In addition, the Emax on NR1/NR2D is 370%; on NR1/NR2C, 323%. At NR1/NR2A, the activity at 100 µM is 121%.
In the case of `COc1ccc(-c2csc(NC(=O)c3ccc(C(C)(C)C)cc3)c2C(=O)O)cc1` [compound 1424], the IC50 at NR1/NR2B was 19 µM; on NR1/NR2D, 43 µM; on NR1/NR2C, 42 µM. Further, the Emax was determined as 475% at NR1/NR2D and 434% at NR1/NR2C. For the same compound, the activity at 100 µM at NR1/NR2A was determined as 123%.
`COc1ccc(OCC2c3cc(OC)c(OC)cc3CCN2C(=O)c2cccc(C)c2)cc1` (centres unmarked) [compound 1425]: the activity at 100 µM at NR1/NR2B worked out at 94%; at NR1/NR2A it was 74%. For the same compound, the 50% inhibitory concentration (IC50) against NR1/NR2D and on NR1/NR2C was 5 µM each time. Further, the Emax on NR1/NR2D is 172%; on NR1/NR2C it was 208%.
Consider `COc1ccc(OCC2c3cc(OC)c(OC)cc3CCN2C(=O)c2cccc(C(F)(F)F)c2)cc1` (centres unmarked) [compound 1426], for which the activity at 100 µM at NR1/NR2B stood at 86%; at NR1/NR2A it was 88%. Also, the IC50 on NR1/NR2D and on NR1/NR2C was 2 µM in each case. Besides, the Emax amounted to 204% on NR1/NR2D and 171% on NR1/NR2C.
Regarding `Cc1csc(C(=O)O)c1NC(=O)c1ccc(C(C)(C)C)cc1` [compound 1428], the activity at 100 µM was determined as 70% at NR1/NR2B, 72% at NR1/NR2D, 80% on NR1/NR2C and 105% at NR1/NR2A.
In the case of `Cc1sc(NC(=O)c2ccc(C(C)(C)C)cc2)c(C(N)=O)c1C` [compound 1433], the figures for the activity at 100 µM at NR1/NR2B and on NR1/NR2A were 98% and 97%, respectively. In addition, the figures for the IC50 against NR1/NR2D and at NR1/NR2C were 34 µM and 51 µM, respectively. In addition, the Emax stood at 150% at NR1/NR2D and 134% at NR1/NR2C.
In the case of `Cc1ccc(-c2csc(NC(=O)c3ccc(C(C)(C)C)cc3)c2C(=O)O)cc1` [compound 1434], the results for the IC50 at NR1/NR2B, against NR1/NR2D and on NR1/NR2C were 11 µM, 18 µM and 16 µM, respectively. Also, the Emax came to 273% at NR1/NR2D and 224% at NR1/NR2C. The activity at 100 µM at NR1/NR2A was 121%.
As for `CC(C)(C)c1ccc(C(=O)Nc2scc(-c3ccc(Br)cc3)c2C(=O)O)cc1` [compound 1435], the activity at 100 µM was 98% on NR1/NR2B, 103% on NR1/NR2D, 103% at NR1/NR2C and 107% on NR1/NR2A.
On to `COc1ccc(NC(O)C2CN(C)C(=O)c3cc(OC)c(OC)cc32)c(OC)c1` (centres unmarked) [compound 1438], for which the activity at 100 µM at NR1/NR2B came out at 85%; on NR1/NR2D, 87%; at NR1/NR2C, 77%; on NR1/NR2A it was 114%.
Turning to `CCN1CC(C(O)Nc2ccc(OC)cc2OC)c2cc(OC)c(OC)cc2C1=O` (centres unmarked) [compound 1439], the activity at 100 µM came to 96% on NR1/NR2B, 89% on NR1/NR2D, 84% at NR1/NR2C and 99% at NR1/NR2A.
The corresponding values for `COc1ccc(NC(O)C2CN(C(C)C)C(=O)c3cc(OC)c(OC)cc32)c(OC)c1` (centres unmarked) [compound 1440] are 90%, 82%, 71% and 123%.
Regarding `O=C(O)c1c(NC(=O)c2cccc3ccccc23)sc2c1CCC2` [compound 1441], the IC50 on NR1/NR2B worked out at 43 µM. Moreover, the activity at 100 µM on NR1/NR2D is 86%; at NR1/NR2C it was 78%; at NR1/NR2A, 81%.
